# According to patent publication US20250129096A1, “ANNULATED 2-AMINO-3-CYANO THIOPHENES AND DERIVATIVES FOR THE TREATMENT OF CANCER” (Boehringer Ingelheim Int'l GmbH Corp., priority 2021, published 2025):
# Tests used:
# KRAS (G12D)::SOS1 = target: T1, KRAS (G12D)::SOS1 (Homo sapiens, UniProt P01116, G12D); experiment: KRAS::SOS1 AlphaScreen binding assay, KRAS G12D
# T1 construct: KRAS (G12D) 1-169, N-terminal 6His-tag, C-terminal avi-tag; 6His-tag (N); purchased Xtal BioStructures, Inc. (KRAS G12D); Viva Biotech Ltd (SOS1)
# T1 sequence (P01116 1-169 isoform P01116-2 G12D): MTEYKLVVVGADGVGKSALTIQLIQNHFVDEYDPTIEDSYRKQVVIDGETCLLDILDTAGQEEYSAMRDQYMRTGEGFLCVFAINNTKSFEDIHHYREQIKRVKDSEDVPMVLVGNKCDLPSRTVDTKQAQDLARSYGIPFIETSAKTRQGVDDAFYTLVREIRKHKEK
# Protocol: (§1) Low IC50 values in this assay setting are indicative of strong inhibition of protein-protein interaction between SOS1 and KRAS:
# (§2) These assays measure the inhibitory effect of compounds on KRAS mutant protein-protein interactions using the Alpha Screen technology by Perkin Elmer.
# (§3) For the chosen highest assay concentration of 100 μM, 150 nL of compound solution are transferred from a 10 mM DMSO compound stock solution. A series of eleven fivefold dilutions per compound are transferred to the assay plate, compound dilutions are tested in duplicates. DMSO are added as backfill to a total volume of 150 nL.
# (§4) The assays run on a fully automated robotic system in a darkened room below 100 Lux. To 150 nl of compound dilution 10 μl of a mix including KRAS mutant protein, SOS1 (final assay concentrations see above) and GDP nucleotide (Sigma G7127; final assay concentration 10 μM) in assay buffer (1×PBS, 0.1% BSA, 0.05% Tween 20) are added into columns 1-24. After 30 minutes incubation time 5 μl of Alpha Screen bead mix in assay buffer are added into columns 1-23.
# (§5) Plates are kept at room temperature in a darkened incubator. After an additional 60 minutes incubation time the signal is measured in a PerkinElmer Envision HTS Multilabel Reader using the AlphaScreen specs from PerkinElmer.
# (§6) IC50 values are calculated and analyzed with Boehringer Ingelheim's MEGALAB IC50 application using a 4 parametric logistic model.
# KRAS (G12C)::SOS1 = target: T2, KRAS (G12C)::SOS1 (Homo sapiens, UniProt P01116, C118S/C51S/C80L/G12C); experiment: KRAS::SOS1 AlphaScreen binding assay, KRAS G12C
# T2 construct: KRAS (G12C) 1-169, N-terminal 6His-tag for purification, cleaved off; 6His-tag (N, cleaved yes)
# T2 sequence (P01116 1-169 isoform P01116-2 G12C/C51S/C80L/C118S): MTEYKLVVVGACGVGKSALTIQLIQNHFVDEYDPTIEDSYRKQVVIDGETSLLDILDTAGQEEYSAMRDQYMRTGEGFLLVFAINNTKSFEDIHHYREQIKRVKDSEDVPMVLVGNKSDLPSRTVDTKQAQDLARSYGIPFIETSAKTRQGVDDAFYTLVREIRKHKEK
# Protocol: as §1, §2, §3, §4, §5, §6
# KRAS (WT)::SOS1 = target: T3, KRAS (WT)::SOS1 (Homo sapiens, UniProt P01116, C118S); experiment: KRAS::SOS1 AlphaScreen binding assay, KRAS WT
# T3 construct: KRAS (WT) 1-169, N-terminal 6His-tag for purification, cleaved off; 6His-tag (N, cleaved yes); TEV cleavage site
# T3 sequence (P01116 1-169 isoform P01116-2 C118S): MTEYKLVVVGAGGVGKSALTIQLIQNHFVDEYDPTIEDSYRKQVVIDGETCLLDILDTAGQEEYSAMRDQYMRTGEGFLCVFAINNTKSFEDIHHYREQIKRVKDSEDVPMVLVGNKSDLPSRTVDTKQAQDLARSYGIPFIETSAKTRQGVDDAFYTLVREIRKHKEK
# Protocol: as §1, §2, §3, §4, §5, §6
# [1] = system: NCI-H2122 cells (NSCLC, G12C); experiment: NCI-H2122 CTG proliferation assay (120 h); type: cell-based; conditions: Homo sapiens, CellTiter-Glo
# Protocol: The CTG assay is designed to measure quantitatively the proliferation of NCI-H2122 cells (ATCC CRL-5985), using the CellTiter Glow Assay Kit (Promega G7571). Cells are grown in RPMI medium (ATCC) supplemented with Fetal Calf Serum (Life Technologies, Gibco BRL, Cat. No. 10270-106). On “day 0” 200 NCI-H2122 cells are seeded in 60 μL RPMI ATCC+10% FCS+ Penstrep in a black 384-well plate, flat and clear bottom (Greiner, PNr. 781091). Cells are then incubated in the plates at 37° C. in a CO2 incubator overnight. On day 1, compounds (10 mM stock in DMSO) are added with the ECHO acoustic liquid handler system (Beckman Coulter), including DMSO controls. Plates are incubated for 120 h, and cell viability is measured using CellTiter-Glo luminescent cell viability reagent (Promega product code G7570). Viability (stated as percent of control) is defined as relative luminescence units RLU of each well divided by the RLU of cells in DMSO controls. IC50 values are determined from viability measurements by non-linear regression using a four-parameter model.
# [2] = system: SAS cells (HNSCC, wt amplified); experiment: SAS CTG proliferation assay (120 h); type: cell-based; conditions: CellTiter-Glo
# Protocol: (§7) SAS cells (JCRB0260) are dispensed into 384-well plates, flat and clear bottom (Greiner, PNr. 781091) at a density of 300 cells per well in 60 μL DMEM:F12 (Gibco 31330-038)+10% Fetal Calf Serum (HyClone, PNr.: SH30084.03) and incubated at 37° C. in a CO2 incubator overnight. The next day, compounds (10 mM stock in DMSO) are added with the ECHO acoustic liquid handler system (Beckman Coulter), including DMSO controls. Plates are incubated for 120 h, and cell viability is measured using CellTiter-Glo luminescent cell viability reagent (Promega product code G7570). Viability (stated as percent of control) is defined as relative luminescence units RLU of each well divided by the RLU of cells in DMSO controls. IC50 values are determined from viability measurements by non-linear regression using a four-parameter model.
# LOVO cells (CRC, G13D) = experiment: LOVO CTG proliferation assay (120 h); type: cell-based; conditions: Homo sapiens, CellTiter-Glo
# Protocol: as §7, with “LOVO cells (ATCC” for “SAS cells (JCRB0260)”, “LOVO cells (ATCC CCL-229) are dispensed” for “SAS cells (JCRB0260) are dispensed”, “density of 1000 cells per” for “density of 300 cells per”, “60 μL DMEM (Sigma D6429)+10% Fetal Calf” for “60 μL DMEM:F12 (Gibco 31330-038)+10% Fetal Calf”
# KRAS G12V Ba/F3 cells = KRAS G12V Ba/F3 cells (Homo sapiens, UniProt P01116, G12V, cells depend on it); experiment: Ba/F3 proliferation assay, KRAS G12V; type: cell-based; conditions: 72 h, AlamarBlue; read-out: KRAS G12V Ba/F3 IC50
# Sequence of KRAS G12V Ba/F3 cells (P01116 whole entry G12V, canonical isoform): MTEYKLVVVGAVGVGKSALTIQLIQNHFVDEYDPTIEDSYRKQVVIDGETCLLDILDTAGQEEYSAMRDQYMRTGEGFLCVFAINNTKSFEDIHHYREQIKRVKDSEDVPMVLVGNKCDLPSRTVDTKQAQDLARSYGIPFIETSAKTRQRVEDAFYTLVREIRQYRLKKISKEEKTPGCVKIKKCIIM
# Protocol: To generate KRASG12-dependent Ba/F3 models, Ba/F3 cells are transduced with retroviruses containing vectors that harbor KRASG12 isoforms. Platinum-E cells (Cell Biolabs) are used for retrovirus packaging. Retrovirus is added to Ba/F3 cells. To ensure infection, 4 μg/mL polybrene is added and cells are spinfected. […] Cells with an infection efficiency of 10% to 20% are further cultivated and puromycin selection with 1 μg/mL is initiated. As a control, parental Ba/F3 cells are used to show selection status. Selection is considered successful when parental Ba/F3 cells cultures died. To evaluate the transforming potential of KRASG12 mutations, the growth medium is no longer supplemented with IL-3. Ba/F3 cells harboring the empty vector are used as a control. Approximately ten days before conducting the experiments, puromycin is left out. […] All treatments are performed in technical duplicates. […] AlamarBlue™(ThermoFisher), a viability stain, is added and fluorescence measured in the PerkinElmer Envision HTS Multilabel Reader. The raw data are imported into and analyzed with the Boehringer Ingelheim proprietary software MegaLab (curve fitting based on the program PRISM, GraphPad Inc.).
IC50 (KRAS (G12D)::SOS1) [µM],IC50 (KRAS (G12C)::SOS1) [µM],IC50 (KRAS (WT)::SOS1) [µM],IC50 [1] [µM],"IC50 (LOVO cells (CRC, G13D)) [µM]",GI50 (KRAS G12V Ba/F3 cells) [µM],Compound,IC50 [2] [µM]
0.003,0.007,0.012,6.36,2.87,,"C[C@H]1CNCCCN1c1nccc(-c2noc3c2CCC[C@@]32CCCc3sc(N)c(C#N)c32)n1 (single isomer, unassigned) [IIb-5]",0.541
0.004,0.007,,7.81,0.618,0.094,C[C@H](Oc1nccc(-c2onc3c2CCC[C@@]32CCCc3sc(N)c(C#N)c32)n1)[C@@H]1C[C@@H]2C[C@@H]2N1C [Ih-1],0.428
0.031,0.044,,3.92,2.42,0.337,CC1Cc2c(-c3ccnc(N4CCCNC[C@@H]4C)n3)noc2C2(CCCc3sc(N)c(C#N)c32)C1 (stereo partly drawn) [IIb-1],8.23
0.004,0.009,,> 25,7.25,,C[C@H]1CNCCCN1c1ncnc(-c2onc3c2CCC[C@@]32CCCc3sc(N)c(C#N)c32)n1 [Ib-4],0.057
0.006,0.015,,> 25,10.9,,C[C@H](Oc1nccc(-c2onc3c2CCC[C@@]32CCCc3sc(N)c(C#N)c32)n1)[C@@H]1C[C@@H]2C[C@@H]2N1 [If-2],8.84
0.021,0.039,,4.85,3.25,0.478,C[C@H]1CNCCCN1c1nccc(-c2noc3c2CC(F)(F)CC32CCCc3sc(N)c(C#N)c32)n1 (stereo partly drawn) [IIb-2],2.96
0.002,0.004,,1.94,0.479,0.136,C[C@H]1CNCCCN1c1nccc(-c2noc3c2OCCC32CCCc3sc(N)c(C#N)c32)n1 (stereo partly drawn) [IIb-7],6.6
0.001,0.003,0.009,9.46,10,,C[C@H]1[C@@H]2CCCN2CCCN1c1nccc(-c2onc3c2CCC[C@@]32CCCc3sc(N)c(C#N)c32)n1 [Id-1],3.99
0.013,0.019,,4.02,1.66,0.138,C[C@H]1CNCCCN1c1nccc(-c2noc3c2CSCC32CCCc3sc(N)c(C#N)c32)n1 (stereo partly drawn) [IIb-4],8.08
0.003,0.007,,5.26,0.539,0.084,CCN1[C@H]2C[C@H]2C[C@H]1[C@H](C)Oc1nccc(-c2onc3c2CCC[C@@]32CCCc3sc(N)c(C#N)c32)n1 [Ie-3],0.37
0.004,0.008,,6.38,3.81,0.203,C[C@H](Oc1nccc(-c2noc3c2CCC[C@@]32CCCc3sc(N)c(C#N)c32)n1)[C@@]1(C)CCCN1C [IIe-1],4.53
0.005,0.014,,8.35,1.1,,C[C@@H]1NCCCN(c2nccc(-c3onc4c3CCC[C@@]43CCCc4sc(N)c(C#N)c43)n2)[C@H]1C [Ib-2],1.09
0.002,0.003,0.007,,,0.025,C[C@H](Oc1ccnc(-c2noc3c2CCC[C@@]32CCCc3sc(N)c(C#N)c32)n1)[C@@H]1CCCN1C [IIb-3],4.96
0.004,0.006,,1.22,0.178,0.092,CC(Oc1nccc(-c2onc3c2CCC[C@@]32CCCc3sc(N)c(C#N)c32)n1)C12CCCN1CCC2 (stereo partly drawn) [Ie-5],1.71
0.005,0.008,0.043,10.7,3.06,0.098,C[C@H]1CNCCCN1c1nccc(-c2onc3c2CCC[C@@]32CCCc3sc(N)c(C#N)c32)n1 [If-1],8.27
0.002,0.005,,1.62,0.567,0.106,C[C@H](Oc1nccc(-c2onc3c2CCC[C@@]32CCCc3sc(N)c(C#N)c32)n1)[C@@H]1C[C@@H](F)CN1C [Ie-2],8.01
0.002,0.003,,1.5,0.333,0.029,CO[C@@H]1C[C@@H]([C@H](C)Oc2nccc(-c3onc4c3CCC[C@@]43CCCc4sc(N)c(C#N)c43)n2)N(C)C1 [Ie-1],13.6

Compound,IC50 (KRAS (G12D)::SOS1) [µM],IC50 (KRAS (G12C)::SOS1) [µM],IC50 (KRAS (WT)::SOS1) [µM],IC50 [1] [µM],"IC50 (LOVO cells (CRC, G13D)) [µM]",GI50 (KRAS G12V Ba/F3 cells) [µM],IC50 [2] [µM]
C[C@H]1CNCCN1c1nccc(-c2noc3c2CCC[C@@]32CCCc3sc(N)c(C#N)c32)n1 [IIf-1],,,,2.86,0.479,,1.38
